The values below come from paper PMC10331488, “Targeting apolipoprotein E and N-terminal amyloid β-protein precursor interaction improves cognition and reduces amyloid pathology in Alzheimer’s mice” (The Journal of Biological Chemistry, 2023).

The conditions of this data set: mouse, in vivo, ip.

Peptide text beside a SMILES is read from it.

Protocol: Finally, to examine whether 6KApoEp did enter the brain to interact with APP, we aimed to identify 6KApoEp in vehicle- and 6KApoEp-treated APP/PS1/E2/E3/E4 mouse brains by Western blotting with antibody against LDLR binding domain (residues 133–152) of human apoE that is the analogous epitope as 6KApoEp except for 6K. […] Moreover, we examined the stability of 6KApoEp in the mouse plasma at different incubation times (i.e., 0, 3, 6, 12, and 24 h) at 37 °C by Western blotting using the same antibody.
The right five lanes denote a series of 6KApoEp calibration peptides (i.e., 20, 40, 80, 160, and 320 ng). Brain homogenates were obtained from APP/PS1/E2 mice that received vehicle (APP/PS1/E2-V) or 6KApoEp (APP/PS1/E2-6KApoEp), APP/PS1/E3 mice that received vehicle (APP/PS1/E3-V) or 6KApoEp (APP/PS1/E3-6KApoEp), and APP/PS1/E4 mice that received vehicle (APP/PS1/E4-V) or 6KApoEp (APP/PS1/E4-6KApoEp) for 3 months starting at 12 months of age. B, Western blotting data for the calibration graph were obtained from a series of 6KApoEp calibration peptides (i.e., 20, 40, 80, 160, and 320 ng). […] Western blotting data for (B) included each mouse (n = 4 per group with two of each sex), and quantitative data were averaged. […] D, the experiment was performed four times, and quantitative data were averaged (Table S23). […]

Regarding `CC(C)C[C@H](NC(=O)[C@H](CCCNC(=N)N)NC(=O)[C@@H](NC(=O)[C@H](CCCNC(=N)N)NC(=O)[C@H](CC(C)C)NC(=O)[C@H](CCCCN)NC(=O)[C@H](CCCCN)NC(=O)[C@H](CCCCN)NC(=O)[C@H](CCCCN)NC(=O)[C@H](CCCCN)NC(=O)[C@@H](N)CCCCN)C(C)C)C(=O)N[C@@H](C)C(=O)N[C@@H](CO)C(=O)N[C@@H](Cc1c[nH]cn1)C(=O)N[C@@H](CC(C)C)C(=O)N[C@@H](CCCNC(=N)N)C(=O)N[C@@H](CCCCN)C(=O)N[C@@H](CC(C)C)C(=O)N[C@@H](CCCNC(=N)N)C(=O)N[C@@H](CCCCN)C(=O)N[C@@H](CCCNC(=N)N)C(=O)N[C@@H](CC(C)C)C(=O)N[C@@H](CC(C)C)C(=O)N[C@@H](CCCNC(=N)N)C(=O)N[C@@H](CC(=O)O)C(=O)N[C@@H](C)C(=O)O` [6KApoEp] (H-KKKKKKLRVRLASHLRKLRKRLLRDA-OH), the “Whole-brain 6KApoEp level relative to the daily dose (7.5 μg)” value was 3.4-6.7 times the daily dose.
